Activity and EC50 data for two compounds are collected here from ChEMBL document CHEMBL1148980, “Scabrolides E-G, three new norditerpenoids from the soft coral Sinularia scabra” (2004).

Values after ≈ are worked out from the molar mass of the structure shown. Active and inactive are the calls of the source. The rule behind the calls is not given here.

What all share (type): functional
Assay [1] concerns KB. Description: Cytotoxicity against human KB cells by MTT assay. (Formazan colour is commonly taken as a measure of viable cells.)
In assay [2] the test system is HEPA 59T/VGH. The assay can be described thus: (§1) Cytotoxicity against human HEPA 59T/VGH cells by MTT assay.
The nature of assay [3]: as §1. The note with it: read-out: ED50 (the source's name).

On to `C=C(C)[C@@H]1CC(=O)C[C@H](O)[C@@]2(O)[C@H]1C=C1C(=O)O[C@@H]3C[C@](C)(O)[C@H]2[C@H]13`, for which the outcome in assay [1] and in assay [2] was inactive.
As to `C=C(C)[C@H]1C/C=C2\C(=O)O[C@H](C[C@]3(C)CC(=O)[C@H](CC(=O)C1)O3)[C@H]2O` [SCABROLIDE E], the EC50 in assay [1] (read-out: ED50 (the source's name)) came out at 0.7 µg/mL (≈ 2.01 µM); in assay [3], 0.5 µg/mL (≈ 1.44 µM).
